Where a name gives a salt, the structure may show the parent alone.
Legend:
TLR8 = target: T1, TLR8 (Homo sapiens, UniProt Q9NR97); assay: HEK/293 TLR8 Cell Assay; format: cell-based; conditions: HEK cells, R848 agonist 30 uM final concentration, Steady-Glo readout; read-out: TLR8 potency
T1 construct: expressed in transfected cells; host or cells: HEK/293 reporter cells (NF-kB luciferase)
T1 sequence (Q9NR97 27-1041): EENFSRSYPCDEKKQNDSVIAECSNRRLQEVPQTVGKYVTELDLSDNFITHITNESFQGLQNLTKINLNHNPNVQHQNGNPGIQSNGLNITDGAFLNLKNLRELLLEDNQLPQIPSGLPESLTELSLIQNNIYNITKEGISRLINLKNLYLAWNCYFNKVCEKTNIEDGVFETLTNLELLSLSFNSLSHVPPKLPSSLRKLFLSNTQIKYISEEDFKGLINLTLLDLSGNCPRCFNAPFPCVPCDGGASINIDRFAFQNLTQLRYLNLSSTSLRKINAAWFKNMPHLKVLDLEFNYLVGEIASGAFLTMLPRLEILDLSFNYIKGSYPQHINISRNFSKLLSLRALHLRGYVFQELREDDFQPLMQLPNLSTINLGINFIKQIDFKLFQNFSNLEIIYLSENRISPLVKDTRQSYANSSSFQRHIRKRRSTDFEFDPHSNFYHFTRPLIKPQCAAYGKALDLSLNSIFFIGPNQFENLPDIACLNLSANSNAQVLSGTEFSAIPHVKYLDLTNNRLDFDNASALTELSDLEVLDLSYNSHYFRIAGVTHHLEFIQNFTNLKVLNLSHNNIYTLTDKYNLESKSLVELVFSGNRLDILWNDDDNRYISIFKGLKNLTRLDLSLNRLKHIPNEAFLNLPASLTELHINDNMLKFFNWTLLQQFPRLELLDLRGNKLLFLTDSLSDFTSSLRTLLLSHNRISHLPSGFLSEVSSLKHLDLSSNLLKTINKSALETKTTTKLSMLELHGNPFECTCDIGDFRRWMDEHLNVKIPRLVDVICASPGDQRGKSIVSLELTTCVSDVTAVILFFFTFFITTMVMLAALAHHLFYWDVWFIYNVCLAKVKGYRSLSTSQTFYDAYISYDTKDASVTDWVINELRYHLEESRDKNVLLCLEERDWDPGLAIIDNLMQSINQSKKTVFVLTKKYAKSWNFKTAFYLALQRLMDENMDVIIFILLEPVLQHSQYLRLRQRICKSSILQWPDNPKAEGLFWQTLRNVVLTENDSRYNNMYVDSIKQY

TLR7 = target: T2, TLR7 (Homo sapiens, UniProt Q9NYK1); assay: HEK/293 TLR7 Cell Assay; format: cell-based; conditions: TLR7/NFKb HEK cells, R848 agonist 10 uM final concentration, Steady-Glo readout; read-out: TLR7 potency
T2 construct: expressed in transfected cells; host or cells: HEK/293 cells carrying TLR7 and an NF-kB luciferase reporter
T2 sequence (Q9NYK1 27-1049): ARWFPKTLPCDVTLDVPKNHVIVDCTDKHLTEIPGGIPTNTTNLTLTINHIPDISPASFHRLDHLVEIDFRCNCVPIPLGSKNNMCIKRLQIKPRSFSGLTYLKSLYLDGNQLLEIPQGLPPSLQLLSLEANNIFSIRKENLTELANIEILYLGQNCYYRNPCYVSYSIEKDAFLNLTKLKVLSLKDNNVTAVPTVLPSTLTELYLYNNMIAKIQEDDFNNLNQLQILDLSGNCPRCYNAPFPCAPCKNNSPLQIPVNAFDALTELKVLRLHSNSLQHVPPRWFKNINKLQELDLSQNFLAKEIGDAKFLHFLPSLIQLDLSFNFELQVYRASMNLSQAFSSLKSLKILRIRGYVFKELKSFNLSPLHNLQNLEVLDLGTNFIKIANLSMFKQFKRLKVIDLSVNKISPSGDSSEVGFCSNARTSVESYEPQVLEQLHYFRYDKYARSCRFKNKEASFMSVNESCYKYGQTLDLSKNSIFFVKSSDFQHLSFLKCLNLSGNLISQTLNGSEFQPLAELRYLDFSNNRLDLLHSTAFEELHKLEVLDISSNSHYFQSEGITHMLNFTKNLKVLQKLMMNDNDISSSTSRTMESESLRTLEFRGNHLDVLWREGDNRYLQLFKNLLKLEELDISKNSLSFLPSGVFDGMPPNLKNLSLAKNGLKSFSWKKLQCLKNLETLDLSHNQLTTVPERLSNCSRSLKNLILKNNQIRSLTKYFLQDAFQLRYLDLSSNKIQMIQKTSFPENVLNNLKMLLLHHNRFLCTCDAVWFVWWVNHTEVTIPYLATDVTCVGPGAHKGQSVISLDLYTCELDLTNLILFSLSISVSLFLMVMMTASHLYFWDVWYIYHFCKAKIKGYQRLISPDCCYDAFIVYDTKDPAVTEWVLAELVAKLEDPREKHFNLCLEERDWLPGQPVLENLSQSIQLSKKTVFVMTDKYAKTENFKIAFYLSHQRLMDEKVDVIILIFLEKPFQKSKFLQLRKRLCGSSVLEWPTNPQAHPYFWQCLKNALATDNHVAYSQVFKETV
Procedure, shortened: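 TLR7/NF-κB reporter HEK293 cells, 5000/well, cultured 24 h, then preincubated 30 min with compound before R848 agonist (10 uM final). After 5 h stimulation, Steady-Glo luciferase luminescence read.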

SMILES | IC50 (TLR8) | IC50 (TLR7)
C[C@H]1C[C@@H](NC(=O)CCN(C)C)CN(c2ccc(C#N)c3nccnc23)C1 [Example 79] | < 75 nM | < 75 nM
C[C@H]1C[C@@H](NC(=O)CC2(O)CCN(C)CC2)CN(c2ccc(C(F)(F)F)c3nccnc23)C1 [Example 80, 2-(4-hydroxy-1-methylpiperidin-4-yl)-N-[(3R,5S)-5-methyl-1-[8-(trifluoromethyl)quinoxalin-5-yl]piperidin-3-yl]acetamide hydrochloride] | < 75 nM | < 75 nM
CN1CCN(CC(=O)N[C@@H]2C[C@H](C(F)(F)F)CN(c3ccc(C#N)c4ncccc34)C2)CC1 [Example 82, N-((3R,5S)-1-(8-cyanoquinolin-5-yl)-5-(trifluoromethyl)piperidin-3-yl)-2-(4-methylpiperazin-1-yl)acetamide] | < 75 nM | 75 to 150 nM
C[C@H]1C[C@@H](NC(=O)CC2(O)CCN(C)CC2)CN(c2ccc(C(F)(F)F)c3ncccc23)C1 [Example 84, 2-(4-hydroxy-1-methylpiperidin-4-yl)-N-[(3R,5S)-5-methyl-1-[8-(trifluoromethyl)quinolin-5-yl]piperidin-3-yl]acetamide] | < 75 nM | < 75 nM
Cc1ccc(N2C[C@@H](C)C[C@@H](NC(=O)CC3(O)CCN(C)CC3)C2)c2cccnc12 [Example 85, 2-(4-hydroxy-1-methylpiperidin-4-yl)-N-[(3R,5S)-5-methyl-1-(8-methylquinolin-5-yl)piperidin-3-yl]acetamide hydrochloride] | < 75 nM | < 75 nM
C[C@H]1C[C@@H](NC(=O)CC2(F)CCN(C)CC2)CN(c2ccc(C#N)c3ncncc23)C1 [Example 88, N-[(3R,5S)-1-(8-cyanoquinazolin-5-yl)-5-methylpiperidin-3-yl]-2-(4-fluoro-1-methylpiperidin-4-yl)acetamide] | < 75 nM | < 75 nM
C[C@H]1C[C@@H](NC(=O)CN2CCN(C)CC2)CN(c2ccc(C#N)c3ncncc23)C1 [Example 89, N-[(3R,5S)-1-(8-cyanoquinazolin-5-yl)-5-methylpiperidin-3-yl]-2-(4-methylpiperazin-1-yl)acetamide] | > 150 nM | < 75 nM
C[C@@H]1C[C@H](NC(=O)C[C@@H]2[C@@H]3C[C@H]2CN(C)C3)CN(c2ccc(C(F)(F)F)c3ncccc23)C1 [Example 107, N-((3S,5R)-5-methyl-1-(8-(trifluoromethyl)quinolin-5-yl)piperidin-3-yl)-2-((1R,5S,6r)-3-methyl-3-azabicyclo[3.1.1]heptan-6-yl)acetamide] | < 75 nM | < 75 nM
Cc1ccc(N2C[C@@H](NC(=O)CC3CCN(C(C)C)CC3)CC(F)(F)C2)c2cccnc12 [Example 111, N—[(S)-5,5-Difluoro-1-(8-methyl-quinolin-5-yl)-piperidin-3-yl]-2-(1-isopropyl-piperidin-4-yl)-acetamide] | > 150 nM | > 150 nM
Cc1c(F)cc(N2C[C@@H](C)C[C@@H](NC(=O)CC3C4CC3CN(C)C4)C2)c2cccnc12 (stereo partly drawn) [Example 112, N-[(3R,5S)-1-(7-Fluoro-8-methyl-quinolin-5-yl)-5-methyl-piperidin-3-yl]-2-(3-methyl-3-aza-bicyclo[3.1.1]hept-6-yl)-acetamide] | < 75 nM | < 75 nM

Results, then the compound that gave them:

IC50 (TLR8) | IC50 (TLR7) | SMILES
< 75 nM | 75 to 150 nM | CN1CCC(O)(CC(=O)N[C@@H]2C[C@H](C(F)(F)F)CN(c3ccc(C#N)c4nccnc34)C2)CC1 [Example 76, N-[(3R,5S)-1-(8-cyanoquinoxalin-5-yl)-5-(trifluoromethyl)piperidin-3-yl]-2-(4-hydroxy-1-methylpiperidin-4-yl)acetamide]
< 75 nM | < 75 nM | CN1CCC(F)(CC(=O)N[C@@H]2C[C@H](C(F)(F)F)CN(c3ccc(C#N)c4nccnc34)C2)CC1 [Example 77]
< 75 nM | < 75 nM | C[C@H]1C[C@@H](NC(=O)CCN(C)C)CN(c2ccc(C(F)(F)F)c3nccnc23)C1 [Example 78]
< 75 nM | < 75 nM | C[C@H]1C[C@@H](NC(=O)CC2(F)CCN(C)CC2)CN(c2ccc(C(F)(F)F)c3ncccc23)C1 [Example 83, 2-(4-fluoro-1-methylpiperidin-4-yl)-N-[(3R,5S)-5-methyl-1-[8-(trifluoromethyl)quinolin-5-yl]piperidin-3-yl]acetamide]
< 75 nM | 75 to 150 nM | Cc1ccc(N2C[C@@H](C)C[C@@H](NC(=O)CN3CCN(C)CC3)C2)c2cccnc12 [Example 86, N-[(3R,5S)-5-methyl-1-(8-methylquinolin-5-yl)piperidin-3-yl]-2-(4-methylpiperazin-1-yl)acetamide]
< 75 nM | < 75 nM | Cc1ccc(N2C[C@H](NC(=O)CC3(O)CCN(C)CC3)C[C@H](C(F)(F)F)C2)c2cccnc12 [Example 87, 2-(4-hydroxy-1-methylpiperidin-4-yl)-N-[(3R,5S)-1-(8-methylquinolin-5-yl)-5-(trifluoromethyl)piperidin-3-yl]acetamide]
< 75 nM | < 75 nM | C[C@H]1C[C@@H](NC(=O)C[C@H]2[C@@H]3C[C@H]2CN(C)C3)CN(c2ccc(C(F)(F)F)c3ncccc23)C1 [Example 106, N-[(3R,5S)-5-methyl-1-[8-(trifluoromethyl)quinolin-5-yl]piperidin-3-yl]-2-[(1R,5S,6s)-3-methyl-3-azabicyclo[3.1.1]heptan-6-yl]acetamide]
< 75 nM | < 75 nM | Cc1ccc(N2C[C@@H](C)C[C@@H](NC(=O)CC3CCN(C(C)C)CC3)C2)c2cccnc12 [Example 108, 2-(1-Isopropyl-piperidin-4-yl)-N-[(3R,5S)-5-methyl-1-(8-methyl-quinolin-5-yl)-piperidin-3-yl]-acetamide]
75 to 150 nM | > 150 nM | Cc1ccc(N2C[C@H](NC(=O)CC3CCN(C(C)C)CC3)C[C@H](C(F)(F)F)C2)c2cccnc12 [Example 109, 2-(1-Isopropyl-piperidin-4-yl)-N-[(3R,5S)-1-(8-methyl-quinolin-5-yl)-5-trifluoromethyl-piperidin-3-yl]-acetamide]
> 150 nM | < 75 nM | Cc1ccc(N2C[C@H](NC(=O)CC3CCN(C(C)C)CC3)CC(F)(F)C2)c2cccnc12 [Example 110, N—[(R)-5,5-Difluoro-1-(8-methyl-quinolin-5-yl)-piperidin-3-yl]-2-(1-isopropyl-piperidin-4-yl)-acetamide]
< 75 nM | 75 to 150 nM | Cc1c(F)cc(N2C[C@H](NC(=O)CC3C4CC3CN(C)C4)C[C@H](C(F)(F)F)C2)c2cccnc12 (stereo partly drawn) [Example 113, N-[(3R,5S)-1-(7-Fluoro-8-methyl-quinolin-5-yl)-5-trifluoromethyl-piperidin-3-yl]-2-(3-methyl-3-aza-bicyclo[3.1.1]hept-6-yl)-acetamide]
